Key:
[1] = system: BoNT/A; format: biochemical
[2] = system: BoNT/A; conditions: cited from earlier work

Row | Substance | depolarization during proteolysis [1] | Relative Rate [2]
1 | GFP-SNAP25(134-206)-His6-C-Alexa Fluor® 594 | approximately 20 mP | –
2 | SNKTRIDEAAQRATKML [Peptide N10A] | – | 0.06
3 | SNKTRIDEANARATKML [Peptide Q11A] | – | 0.19
4 | SNKTRIDEANBRATKML [Peptide Q11B] | – | 0.25
5 | SNKTRIDEANNRATKML [Peptide Q11N] | – | 0.66
6 | SNKTRIDEANQRABKML [Peptide T14B] | – | 1.20
7 | SNKTRIDEANQRASKML [Peptide T14S] | – | 0.26
8 | SNKTRIDEANQRATAML [Peptide K15A] | – | 0.12
9 | SNKTRIDEANQRATK [[1-15]] | – | 0.03
10 | SNKTRIDEANQRATKAL [Peptide M16A] | – | 0.38
11 | SNKTRIDEANQRATKM [[1-16]] | – | 1.17
12 | SNKTRIDEANQRATKML [[1-17]] | – | 1.00
13 | SNKTRIDEANQRATKXL [Peptide M16X] | – | 1.20
14 | SNKTRIDEANQRBTKML [Peptide A13B] | – | 0.79
15 | SNKTRIDEBNQRATKML [Peptide A9B] | – | 0.38
16 | SNKTRIDQANQRATKML [Peptide E8Q] | – | 2.08
17 | SNKTRINEANQRATKML [Peptide D7N] | – | 0.23

— patent US7399607B2, “Fluorescence polarization assays for determining clostridial toxin activity” (priority 2004, dated 2008)
